This is an account of results in article PMC4389368, “Sarmentine, a natural herbicide from Piper species with multiple herbicide mechanisms of action” (Frontiers in Plant Science, 2015).

Assay [1] relates to T1, photosystem II QB protein (D1).
T1 construct: gene psbA; isolated thylakoid membranes, wild-type; with photosystem II complex
Put plainly: oxygen evolution in isolated thylakoid membranes. Type of assay: biochemical, Amaranthus retroflexus.

The target in assay [2] is T2, enoyl-ACP reductase (ENR) (Arabidopsis thaliana, UniProt Q9SLA8).
T2 construct: gene MOD1
T2 sequence (Q9SLA8 75-390): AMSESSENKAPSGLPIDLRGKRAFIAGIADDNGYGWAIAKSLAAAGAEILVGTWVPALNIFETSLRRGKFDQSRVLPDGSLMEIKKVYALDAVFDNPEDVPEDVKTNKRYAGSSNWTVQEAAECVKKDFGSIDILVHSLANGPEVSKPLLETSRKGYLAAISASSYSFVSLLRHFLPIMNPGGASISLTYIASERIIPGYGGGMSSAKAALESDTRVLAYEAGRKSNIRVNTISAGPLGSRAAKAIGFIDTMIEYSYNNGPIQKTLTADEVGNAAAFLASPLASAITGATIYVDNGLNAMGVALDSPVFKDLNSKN
Description: NADH oxidation (A340) with purified recombinant enzyme. Type of assay: biochemical.

For assay [3], the target named is T3, photosystem II QB protein (D1) (Spinacia oleracea, UniProt P69560).
T3 construct: gene psbA; isolated thylakoid membranes; with photosystem II complex
Description: […]-atrazine displacement on spinach thylakoid membranes. It counts as binding.

`CCCCC/C=C/C=C/C(=O)N1CCCC1` [Sarmentine, 1-(1-pyrrolidinyl)-(2E,4E)-2,4-decadien-1-one]: the IC50 – broadly, the concentration that gives 50% inhibition – in assay [1] is 1720 nM; in assay [2], 18300 nM. Besides, in assay [3], the Ki (usually the equilibrium dissociation constant of an inhibitor or competing ligand from its target) was 1500 nM.
`CCNc1nc(Cl)nc(NC(C)C)n1` [atrazine] gave an IC50 in assay [1] of 600 nM.
